Measured values: US7059206B1 (priority 1999, dated 2006)
Read-outs that look alike come from different tables or passages of the source.

Key:
[1] = Uptake by prototype passive sampler at constant exposure concentration over time; conditions: polyethylene device
Protocol: In each experiment, the prototype device was tested fitted with both the polyethylene and the polysulphone membrane.
Accumulation of organic analytes by a passive sampling system fitted with a C18 Empore™ disk as receiving phase and either a […] pore size polysulphone membrane or a polyethylene membrane as a diffusion-limiting membrane material. Accumulation was measured following exposure of the system to an aqueous solution of analytes at constant concentration, stirring speed (140 rpm) and temperature (11° C.). Linear regressions of the accumulation factor, AF, (ml/device) on time were plotted and are given with the […] (R^2) in table 7. AF=mass of analytes in the tested compartment (ng/device)/mean concentration of the analyte in the aqueous phase during deployment (ng/ml).
The pattern of uptake in each case is linear with time over deployment periods ranging from several hours to 9 days. R^2 values in each case are above 0.9. Linear regressions plotted through the data points show the lag time between exposure of the device to an aqueous solution of each analyte and its uptake into the receiving phase of the passive sampling system. In effect this is a measurement of the response time of a particular prototype passive sampling system to a particular compound.

[2] = cited from earlier work
[3] = Cadmium uptake by passive sampler, effect of pH and of permselective membrane
From the text: Further evidence for the permselective function of the membrane during diffusion is illustrated by studying the effect of pH on metal uptake by the passive sampler, in this case Cd. […] Cadmium was initially added to a carefully-controlled water system in the laboratory into which the sampler was placed. Samples of water were taken over a period of 10 days.
Further evidence of the interaction of metal with the permselective membrane is that uptake to a naked disk is much more rapid. The uptake rate constant (k) for Cd is 1.6×10^9 min^−1 for the naked disk and 0.21×10^9 min^−1 for the permselective membrane.

SMILES | lag phase between exposure and uptake into the C18 receiving phase [1] | Solubility in water ([2]; at 25° C.) [mgl^−1] | Solubility in water ([2]; temperature not given) [mgl^−1] | other results
ClC1=C(Cl)[C@]2(Cl)[C@@H]3[C@@H]4C[C@@H]([C@H]5O[C@@H]45)[C@@H]3[C@@]1(Cl)C2(Cl)Cl [Dieldrin] | a more significant lag phase | 0.186 |  | 
c1ccc2c(c1)ccc1ccccc12 [Phenanthrene] | only a small lag phase |  |  | 
[Cd] [Cadmium] |  |  |  | uptake rate constant (k) ([3]; naked disk): 1.6e+09 min⁻¹; uptake rate constant (k) ([3]; permselective membrane (Nafion-coated cellulose acetate)): 2.1e+08 min⁻¹
Clc1cc(Cl)c(-c2cc(Cl)c(Cl)cc2Cl)cc1Cl [PCB 153] | a more significant lag phase |  | 0.00105 | 
CN(C)C(=O)Nc1ccc(Cl)c(Cl)c1 [Diuron] |  | 42 |  | 
Clc1ccc(Cl)c(-c2cc(Cl)ccc2Cl)c1 [PCB 52] | only a small lag phase |  | 0.03 | 
